Laboratory results as given in ChEMBL document CHEMBL1201861, “Genomics of Drug Sensitity in Cancer screening data, Wellcome Trust Sanger Institute”.
pIC50: −log10 of the molar value.

System: MPP-89;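 further: growth inhibition of human MPP-89 cells, read out with a cell viability assay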
Experiment: cells
Format: functional, cell-based, Homo sapiens
Conditions: Homo sapiens, MPP-89
Description: SANGER: Inhibition of human MPP-89 cell growth in a cell viability assay.

Structure (SMILES) | pIC50
Nc1ccn([C@@H]2O[C@H](CO)[C@@H](O)C2(F)F)c(=O)n1 [GEMCITABINE] | 6.16

System: ES4;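 further: growth inhibition of human ES4 cells, read out by a cell viability assay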
Experiment: cells
Format: functional, cell-based, Homo sapiens
Conditions: Homo sapiens, ES4
Description: SANGER: Inhibition of human ES4 cell growth in a cell viability assay.

Structure (SMILES) | pIC50
Nc1ccn([C@@H]2O[C@H](CO)[C@@H](O)C2(F)F)c(=O)n1 [GEMCITABINE] | > 8.40

System: NB12;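 further: growth inhibition of human NB12 cells, read out by a cell viability assay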
Experiment: cells
Format: functional, cell-based, Homo sapiens
Conditions: Homo sapiens, NB12
Description: SANGER: Inhibition of human NB12 cell growth in a cell viability assay.

Structure (SMILES) | pIC50
Nc1ccn([C@@H]2O[C@H](CO)[C@@H](O)C2(F)F)c(=O)n1 [GEMCITABINE] | 6.81

System: NCI-H1650;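 further: growth inhibition of human NCI-H1650 cells measured by a cell viability assay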
Experiment: cells
Format: functional, cell-based, Homo sapiens
Conditions: Homo sapiens, NCI-H1650
Description: SANGER: Inhibition of human NCI-H1650 cell growth in a cell viability assay.

Structure (SMILES) | pIC50
Nc1ccn([C@@H]2O[C@H](CO)[C@@H](O)C2(F)F)c(=O)n1 [GEMCITABINE] | 7.60

System: A101D;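 further: growth inhibition of the cell line, measured with a viability assay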
Experiment: cells
Format: functional, cell-based, Homo sapiens
Conditions: Homo sapiens, A101D
Description: SANGER: Inhibition of human A101D cell growth in a cell viability assay.

Structure (SMILES) | pIC50
Nc1ccn([C@@H]2O[C@H](CO)[C@@H](O)C2(F)F)c(=O)n1 [GEMCITABINE] | 8.03

System: ES6;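 further: growth inhibition of human ES6 cells, read out with a cell viability assay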
Experiment: cells
Format: functional, cell-based, Homo sapiens
Conditions: Homo sapiens, ES6
Description: SANGER: Inhibition of human ES6 cell growth in a cell viability assay.

Structure (SMILES) | pIC50
Nc1ccn([C@@H]2O[C@H](CO)[C@@H](O)C2(F)F)c(=O)n1 [GEMCITABINE] | > 8.40

System: NCI-H82;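 further: growth inhibition of NCI-H82 cells, measured with a cell viability readout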
Experiment: cells
Format: functional, cell-based, Homo sapiens
Conditions: Homo sapiens, NCI-H82
Description: SANGER: Inhibition of human NCI-H82 cell growth in a cell viability assay.

Structure (SMILES) | pIC50
Nc1ccn([C@@H]2O[C@H](CO)[C@@H](O)C2(F)F)c(=O)n1 [GEMCITABINE] | 6.43

System: NCI-H747;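 further: growth inhibition of human NCI-H747 cells, read out by a cell viability assay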
Experiment: cells
Format: functional, cell-based, Homo sapiens
Conditions: Homo sapiens, NCI-H747
Description: SANGER: Inhibition of human NCI-H747 cell growth in a cell viability assay.

Structure (SMILES) | pIC50
Nc1ccn([C@@H]2O[C@H](CO)[C@@H](O)C2(F)F)c(=O)n1 [GEMCITABINE] | 7.37

System: CGTH-W-1;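 further: growth inhibition of human CGTH-W-1 cells measured by cell viability assay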
Experiment: cells
Format: functional, cell-based, Homo sapiens
Conditions: Homo sapiens, CGTH-W-1
Description: SANGER: Inhibition of human CGTH-W-1 cell growth in a cell viability assay.

Structure (SMILES) | pIC50
Nc1ccn([C@@H]2O[C@H](CO)[C@@H](O)C2(F)F)c(=O)n1 [GEMCITABINE] | 8.56

System: OVCAR-4;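 further: growth inhibition of human OVCAR-4 cells, measured with a cell viability assay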
Experiment: cells
Format: functional, cell-based, Homo sapiens
Conditions: Homo sapiens, OVCAR-4
Description: SANGER: Inhibition of human OVCAR-4 cell growth in a cell viability assay.

Structure (SMILES) | pIC50
Nc1ccn([C@@H]2O[C@H](CO)[C@@H](O)C2(F)F)c(=O)n1 [GEMCITABINE] | 6.20

System: HC-1;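 further: growth inhibition of HC-1 cells measured by a cell viability assay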
Experiment: cells
Format: functional, cell-based, Homo sapiens
Conditions: Homo sapiens, HC-1
Description: SANGER: Inhibition of human HC-1 cell growth in a cell viability assay.

Structure (SMILES) | pIC50
Nc1ccn([C@@H]2O[C@H](CO)[C@@H](O)C2(F)F)c(=O)n1 [GEMCITABINE] | > 8.40

System: MSTO-211H
Experiment: cells
Format: functional, cell-based, Homo sapiens
Conditions: Homo sapiens, MSTO-211H
Description: SANGER: Inhibition of human MSTO-211H cell growth in a cell viability assay.

Structure (SMILES) | pIC50
Nc1ccn([C@@H]2O[C@H](CO)[C@@H](O)C2(F)F)c(=O)n1 [GEMCITABINE] | < 5.99

System: SF-268;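 further: growth inhibition of SF-268 cells determined with a cell viability assay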
Experiment: cells
Format: functional, cell-based, Homo sapiens
Conditions: Homo sapiens, SF-268
Description: SANGER: Inhibition of human SF268 cell growth in a cell viability assay.

Structure (SMILES) | pIC50
Nc1ccn([C@@H]2O[C@H](CO)[C@@H](O)C2(F)F)c(=O)n1 [GEMCITABINE] | > 8.40

System: OCUB-M;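 further: growth inhibition of the cancer cell line, read out through a cell viability assay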
Experiment: cells
Format: functional, cell-based, Homo sapiens
Conditions: Homo sapiens, OCUB-M
Description: SANGER: Inhibition of human OCUB-M cell growth in a cell viability assay.

Structure (SMILES) | pIC50
Nc1ccn([C@@H]2O[C@H](CO)[C@@H](O)C2(F)F)c(=O)n1 [GEMCITABINE] | 8.00

System: A3-KAW;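 further: growth inhibition of human A3-KAW cells, read out with a cell viability assay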
Experiment: cells
Format: functional, cell-based, Homo sapiens
Conditions: Homo sapiens, A3-KAW
Description: SANGER: Inhibition of human A3-KAW cell growth in a cell viability assay.

Structure (SMILES) | pIC50
Nc1ccn([C@@H]2O[C@H](CO)[C@@H](O)C2(F)F)c(=O)n1 [GEMCITABINE] | > 8.40

System: HAL-01;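 further: growth inhibition of human HAL-01 cells, read out with a cell viability assay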
Experiment: cells
Format: functional, cell-based, Homo sapiens
Conditions: Homo sapiens, HAL-01
Description: SANGER: Inhibition of human HAL-01 cell growth in a cell viability assay.

Structure (SMILES) | pIC50
Nc1ccn([C@@H]2O[C@H](CO)[C@@H](O)C2(F)F)c(=O)n1 [GEMCITABINE] | 8.09

System: GR-ST
Experiment: cells
Format: functional, cell-based, Homo sapiens
Conditions: Homo sapiens, GR-ST
Description: SANGER: Inhibition of human GR-ST cell growth in a cell viability assay.

Structure (SMILES) | pIC50
Nc1ccn([C@@H]2O[C@H](CO)[C@@H](O)C2(F)F)c(=O)n1 [GEMCITABINE] | > 8.40

System: GCIY;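 further: growth inhibition of the human GCIY cell line, read out by a cell viability assay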
Experiment: cells
Format: functional, cell-based, Homo sapiens
Conditions: Homo sapiens, GCIY
Description: SANGER: Inhibition of human GCIY cell growth in a cell viability assay.

Structure (SMILES) | pIC50
Nc1ccn([C@@H]2O[C@H](CO)[C@@H](O)C2(F)F)c(=O)n1 [GEMCITABINE] | 7.03

System: HCC2157;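 further: growth inhibition of the cancer cell line, read out as cell viability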
Experiment: cells
Format: functional, cell-based, Homo sapiens
Conditions: Homo sapiens, HCC2157
Description: SANGER: Inhibition of human HCC2157 cell growth in a cell viability assay.

Structure (SMILES) | pIC50
Nc1ccn([C@@H]2O[C@H](CO)[C@@H](O)C2(F)F)c(=O)n1 [GEMCITABINE] | < 5.99

System: L-363
Experiment: cells
Format: functional, cell-based, Homo sapiens
Conditions: Homo sapiens, L-363
Description: SANGER: Inhibition of human L-363 cell growth in a cell viability assay.

Structure (SMILES) | pIC50
Nc1ccn([C@@H]2O[C@H](CO)[C@@H](O)C2(F)F)c(=O)n1 [GEMCITABINE] | 7.02

System: TGW;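 further: growth inhibition of human TGW cells, read out with a cell viability assay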
Experiment: cells
Format: functional, cell-based, Homo sapiens
Conditions: Homo sapiens, TGW
Description: SANGER: Inhibition of human TGW cell growth in a cell viability assay.

Structure (SMILES) | pIC50
Nc1ccn([C@@H]2O[C@H](CO)[C@@H](O)C2(F)F)c(=O)n1 [GEMCITABINE] | 6.70

System: MFH-ino;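 further: growth inhibition of human MFH-ino cells, read out by a cell viability assay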
Experiment: cells
Format: functional, cell-based, Homo sapiens
Conditions: Homo sapiens, MFH-ino
Description: SANGER: Inhibition of human MFH-ino cell growth in a cell viability assay.

Structure (SMILES) | pIC50
Nc1ccn([C@@H]2O[C@H](CO)[C@@H](O)C2(F)F)c(=O)n1 [GEMCITABINE] | 8.78

System: NOMO-1;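 further: growth inhibition of human NOMO-1 cells measured by a cell viability assay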
Experiment: cells
Format: functional, cell-based, Homo sapiens
Conditions: Homo sapiens, NOMO-1
Description: SANGER: Inhibition of human NOMO-1 cell growth in a cell viability assay.

Structure (SMILES) | pIC50
Nc1ccn([C@@H]2O[C@H](CO)[C@@H](O)C2(F)F)c(=O)n1 [GEMCITABINE] | 7.54

System: A704;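 further: growth inhibition of human A704 cells, read out with a cell viability assay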
Experiment: cells
Format: functional, cell-based, Homo sapiens
Conditions: Homo sapiens, A704
Description: SANGER: Inhibition of human A704 cell growth in a cell viability assay.

Structure (SMILES) | pIC50
Nc1ccn([C@@H]2O[C@H](CO)[C@@H](O)C2(F)F)c(=O)n1 [GEMCITABINE] | 7.27

System: SK-MEL-1;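 further: growth inhibition of human SK-MEL-1 cells, read out by a cell viability assay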
Experiment: cells
Format: functional, cell-based, Homo sapiens
Conditions: Homo sapiens, SK-MEL-1
Description: SANGER: Inhibition of human SK-MEL-1 cell growth in a cell viability assay.

Structure (SMILES) | pIC50
Nc1ccn([C@@H]2O[C@H](CO)[C@@H](O)C2(F)F)c(=O)n1 [GEMCITABINE] | < 5.99

System: SK-N-FI;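 further: cell viability assay measuring growth inhibition of human SK-N-FI cells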
Experiment: cells
Format: functional, cell-based, Homo sapiens
Conditions: Homo sapiens, SK-N-FI
Description: SANGER: Inhibition of human SK-N-FI cell growth in a cell viability assay.

Structure (SMILES) | pIC50
Nc1ccn([C@@H]2O[C@H](CO)[C@@H](O)C2(F)F)c(=O)n1 [GEMCITABINE] | < 5.99

System: COLO-824
Experiment: cells
Format: functional, cell-based, Homo sapiens
Conditions: Homo sapiens, COLO-824
Description: SANGER: Inhibition of human COLO-824 cell growth in a cell viability assay.

Structure (SMILES) | pIC50
Nc1ccn([C@@H]2O[C@H](CO)[C@@H](O)C2(F)F)c(=O)n1 [GEMCITABINE] | < 5.99

System: NEC8;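 further: growth inhibition of human NEC8 cells, read out by a cell viability assay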
Experiment: cells
Format: functional, cell-based, Homo sapiens
Conditions: Homo sapiens, NEC8
Description: SANGER: Inhibition of human NEC8 cell growth in a cell viability assay.

Structure (SMILES) | pIC50
Nc1ccn([C@@H]2O[C@H](CO)[C@@H](O)C2(F)F)c(=O)n1 [GEMCITABINE] | 7.45

System: SW 962;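 further: growth inhibition of human SW962 cells, read out by a cell viability assay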
Experiment: cells
Format: functional, cell-based, Homo sapiens
Conditions: Homo sapiens, SW 962
Description: SANGER: Inhibition of human SW962 cell growth in a cell viability assay.

Structure (SMILES) | pIC50
Nc1ccn([C@@H]2O[C@H](CO)[C@@H](O)C2(F)F)c(=O)n1 [GEMCITABINE] | 7.28

System: IA-LM;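 further: cell viability assay measuring growth inhibition of human IA-LM cells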
Experiment: cells
Format: functional, cell-based, Homo sapiens
Conditions: Homo sapiens, IA-LM
Description: SANGER: Inhibition of human IA-LM cell growth in a cell viability assay.

Structure (SMILES) | pIC50
Nc1ccn([C@@H]2O[C@H](CO)[C@@H](O)C2(F)F)c(=O)n1 [GEMCITABINE] | 8.23

System: BB65-RCC;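 further: growth inhibition of the cell line, measured with a cell viability assay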
Experiment: cells
Format: functional, cell-based, Homo sapiens
Conditions: Homo sapiens, BB65-RCC
Description: SANGER: Inhibition of human BB65-RCC cell growth in a cell viability assay.

Structure (SMILES) | pIC50
Nc1ccn([C@@H]2O[C@H](CO)[C@@H](O)C2(F)F)c(=O)n1 [GEMCITABINE] | > 8.40

System: NCI-H720;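 further: growth inhibition of human NCI-H720 cells determined by a cell viability assay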
Experiment: cells
Format: functional, cell-based, Homo sapiens
Conditions: Homo sapiens, NCI-H720
Description: SANGER: Inhibition of human NCI-H720 cell growth in a cell viability assay.

Structure (SMILES) | pIC50
Nc1ccn([C@@H]2O[C@H](CO)[C@@H](O)C2(F)F)c(=O)n1 [GEMCITABINE] | < 5.99

System: MOLT-16;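 further: growth inhibition of human MOLT-16 cells, read out with a cell viability assay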
Experiment: cells
Format: functional, cell-based, Homo sapiens
Conditions: Homo sapiens, MOLT-16
Description: SANGER: Inhibition of human MOLT-16 cell growth in a cell viability assay.

Structure (SMILES) | pIC50
Nc1ccn([C@@H]2O[C@H](CO)[C@@H](O)C2(F)F)c(=O)n1 [GEMCITABINE] | 7.37

System: GOTO;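 further: growth inhibition of GOTO cells, read out by a cell viability assay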
Experiment: cells
Format: functional, cell-based, Homo sapiens
Conditions: Homo sapiens, GOTO
Description: SANGER: Inhibition of human GOTO cell growth in a cell viability assay.

Structure (SMILES) | pIC50
Nc1ccn([C@@H]2O[C@H](CO)[C@@H](O)C2(F)F)c(=O)n1 [GEMCITABINE] | < 5.99

System: BE-13;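 further: growth inhibition of human BE-13 cells, measured with a cell viability assay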
Experiment: cells
Format: functional, cell-based, Homo sapiens
Conditions: Homo sapiens, BE-13
Description: SANGER: Inhibition of human BE-13 cell growth in a cell viability assay.

Structure (SMILES) | pIC50
Nc1ccn([C@@H]2O[C@H](CO)[C@@H](O)C2(F)F)c(=O)n1 [GEMCITABINE] | 8.28

System: D283 Med
Experiment: cells
Format: functional, cell-based, Homo sapiens
Conditions: Homo sapiens, D283 Med
Description: SANGER: Inhibition of human D-283MED cell growth in a cell viability assay.

Structure (SMILES) | pIC50
Nc1ccn([C@@H]2O[C@H](CO)[C@@H](O)C2(F)F)c(=O)n1 [GEMCITABINE] | 6.90

System: J-RT3-T3-5;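 further: cell viability assay measuring growth inhibition of human J-RT3-T3-5 cells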
Experiment: cells
Format: functional, cell-based, Homo sapiens
Conditions: Homo sapiens, J-RT3-T3-5
Description: SANGER: Inhibition of human J-RT3-T3-5 cell growth in a cell viability assay.

Structure (SMILES) | pIC50
Nc1ccn([C@@H]2O[C@H](CO)[C@@H](O)C2(F)F)c(=O)n1 [GEMCITABINE] | 7.17

System: L-428
Experiment: cells
Format: functional, cell-based, Homo sapiens
Conditions: Homo sapiens, L-428
Description: SANGER: Inhibition of human L-428 cell growth in a cell viability assay.

Structure (SMILES) | pIC50
Nc1ccn([C@@H]2O[C@H](CO)[C@@H](O)C2(F)F)c(=O)n1 [GEMCITABINE] | 7.63

System: LS-1034
Experiment: cells
Format: functional, cell-based, Homo sapiens
Conditions: Homo sapiens, LS-1034
Description: SANGER: Inhibition of human LS-1034 cell growth in a cell viability assay.

Structure (SMILES) | pIC50
Nc1ccn([C@@H]2O[C@H](CO)[C@@H](O)C2(F)F)c(=O)n1 [GEMCITABINE] | < 5.99

System: 8-MG-BA;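 further: growth inhibition of 8-MG-BA cells, read out with a cell viability assay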
Experiment: cells
Format: functional, cell-based, Homo sapiens
Conditions: Homo sapiens, 8-MG-BA
Description: SANGER: Inhibition of human 8-MG-BA cell growth in a cell viability assay.

Structure (SMILES) | pIC50
Nc1ccn([C@@H]2O[C@H](CO)[C@@H](O)C2(F)F)c(=O)n1 [GEMCITABINE] | 8.23

System: IST-MEL1;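 further: growth inhibition of the cell line, read out with a cell viability assay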
Experiment: cells
Format: functional, cell-based, Homo sapiens
Conditions: Homo sapiens, IST-MEL1
Description: SANGER: Inhibition of human IST-MEL1 cell growth in a cell viability assay.

Structure (SMILES) | pIC50
Nc1ccn([C@@H]2O[C@H](CO)[C@@H](O)C2(F)F)c(=O)n1 [GEMCITABINE] | > 8.40

System: NCI-H1299;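 further: growth inhibition of human NCI-H1299 cells, read out by a cell viability assay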
Experiment: cells
Format: functional, cell-based, Homo sapiens
Conditions: Homo sapiens, NCI-H1299
Description: SANGER: Inhibition of human NCI-H1299 cell growth in a cell viability assay.

Structure (SMILES) | pIC50
Nc1ccn([C@@H]2O[C@H](CO)[C@@H](O)C2(F)F)c(=O)n1 [GEMCITABINE] | > 8.40

System: BB30-HNC;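 further: growth inhibition of the cultured cell line, read out by a cell viability assay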
Experiment: cells
Format: functional, cell-based, Homo sapiens
Conditions: Homo sapiens, BB30-HNC
Description: SANGER: Inhibition of human BB30-HNC cell growth in a cell viability assay.

Structure (SMILES) | pIC50
Nc1ccn([C@@H]2O[C@H](CO)[C@@H](O)C2(F)F)c(=O)n1 [GEMCITABINE] | > 8.40

System: NCI-H1395;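 further: cell viability assay read-out quantifying reduced proliferation of human NCI-H1395 cells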
Experiment: cells
Format: functional, cell-based, Homo sapiens
Conditions: Homo sapiens, NCI-H1395
Description: SANGER: Inhibition of human NCI-H1395 cell growth in a cell viability assay.

Structure (SMILES) | pIC50
Nc1ccn([C@@H]2O[C@H](CO)[C@@H](O)C2(F)F)c(=O)n1 [GEMCITABINE] | < 5.99

System: TE-11;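 further: growth inhibition of human TE-11 cells, read out by a cell viability assay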
Experiment: cells
Format: functional, cell-based, Homo sapiens
Conditions: Homo sapiens, TE-11
Description: SANGER: Inhibition of human TE-11 cell growth in a cell viability assay.

Structure (SMILES) | pIC50
Nc1ccn([C@@H]2O[C@H](CO)[C@@H](O)C2(F)F)c(=O)n1 [GEMCITABINE] | < 5.99

System: EW-24;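 further: human EW-24 cancer cell line, growth inhibition read out via a cell viability assay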
Experiment: cells
Format: functional, cell-based, Homo sapiens
Conditions: Homo sapiens, EW-24
Description: SANGER: Inhibition of human EW-24 cell growth in a cell viability assay.

Structure (SMILES) | pIC50
Nc1ccn([C@@H]2O[C@H](CO)[C@@H](O)C2(F)F)c(=O)n1 [GEMCITABINE] | < 5.99

System: NB6;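 further: growth inhibition of NB6 cells, read out by a cell viability assay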
Experiment: cells
Format: functional, cell-based, Homo sapiens
Conditions: Homo sapiens, NB6
Description: SANGER: Inhibition of human NB6 cell growth in a cell viability assay.

Structure (SMILES) | pIC50
Nc1ccn([C@@H]2O[C@H](CO)[C@@H](O)C2(F)F)c(=O)n1 [GEMCITABINE] | < 5.99

System: TE-5;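 further: inhibition of cell growth, read out by a cell viability assay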
Experiment: cells
Format: functional, cell-based, Homo sapiens
Conditions: Homo sapiens, TE-5
Description: SANGER: Inhibition of human TE-5 cell growth in a cell viability assay.

Structure (SMILES) | pIC50
Nc1ccn([C@@H]2O[C@H](CO)[C@@H](O)C2(F)F)c(=O)n1 [GEMCITABINE] | > 8.40
